Laboratory results as given in US20090018134A1, “Compounds - 945” (AstraZeneca AB, priority 2007, published 2009).

target: T1, mTOR (Homo sapiens, UniProt P42345); assay: In Vitro mTOR Kinase Assay (Echo), Test (a)(ii); type: biochemical; conditions: table of enzyme assay Test (a)(ii); read-out: Test (a)(ii) IC50
T1 construct: FLAG; made in house
Summary of the method: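 Enzyme: HEK293-expressed, FLAG-purified mTOR C-terminal fragment (aa 1362-2549). Rxn 2 h RT with biotinylated peptide, stopped with EDTA 50 mM/BSA/Tris pH 7.4. Detection: T389 phospho-antibody AlphaScreen, 680 nm excitation. IC50.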

T1 sequence (P42345 1362-2549): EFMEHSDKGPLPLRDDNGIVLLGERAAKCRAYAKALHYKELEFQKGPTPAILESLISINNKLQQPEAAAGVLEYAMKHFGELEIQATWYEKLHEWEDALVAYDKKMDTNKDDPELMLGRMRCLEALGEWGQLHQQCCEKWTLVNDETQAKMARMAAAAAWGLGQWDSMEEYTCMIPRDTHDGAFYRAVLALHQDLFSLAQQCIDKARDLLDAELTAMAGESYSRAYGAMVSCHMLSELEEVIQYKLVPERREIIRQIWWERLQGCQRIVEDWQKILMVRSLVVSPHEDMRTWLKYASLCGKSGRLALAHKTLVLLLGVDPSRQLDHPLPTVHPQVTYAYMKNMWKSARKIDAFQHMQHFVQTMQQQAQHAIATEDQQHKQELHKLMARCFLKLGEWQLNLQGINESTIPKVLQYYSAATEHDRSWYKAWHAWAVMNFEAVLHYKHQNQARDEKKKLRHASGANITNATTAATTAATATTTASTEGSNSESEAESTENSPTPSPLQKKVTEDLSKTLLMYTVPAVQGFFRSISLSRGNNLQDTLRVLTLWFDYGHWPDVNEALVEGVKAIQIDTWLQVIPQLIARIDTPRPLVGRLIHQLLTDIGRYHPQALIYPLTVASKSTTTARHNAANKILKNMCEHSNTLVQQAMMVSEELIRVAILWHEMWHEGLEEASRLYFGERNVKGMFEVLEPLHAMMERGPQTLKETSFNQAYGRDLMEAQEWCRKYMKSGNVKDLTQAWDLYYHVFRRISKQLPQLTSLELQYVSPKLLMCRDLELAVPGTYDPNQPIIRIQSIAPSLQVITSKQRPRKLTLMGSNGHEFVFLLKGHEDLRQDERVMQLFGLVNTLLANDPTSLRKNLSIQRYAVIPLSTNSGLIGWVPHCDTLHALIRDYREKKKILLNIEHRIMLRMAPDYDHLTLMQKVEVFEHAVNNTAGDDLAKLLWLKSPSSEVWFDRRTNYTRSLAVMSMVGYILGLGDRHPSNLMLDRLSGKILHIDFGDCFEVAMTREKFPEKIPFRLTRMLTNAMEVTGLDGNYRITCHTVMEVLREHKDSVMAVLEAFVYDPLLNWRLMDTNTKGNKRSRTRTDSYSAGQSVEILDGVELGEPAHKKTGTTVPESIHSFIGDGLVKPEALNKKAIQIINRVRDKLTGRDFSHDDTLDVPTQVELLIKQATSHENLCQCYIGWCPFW

Row | Compound | IC50 [nM]
1 | C[C@H]1COCCN1c1cc(C2(S(=O)(=O)C3CCOCC3)CC2)nc(-c2ccc(NC(=O)NC3CCC3)cc2)n1 [Example 94f, 3-cyclobutyl-1-[4-[4-[(3S)-3-methylmorpholin-4-yl]-6-[1-(oxan-4-ylsulfonyl)cyclopropyl]pyrimidin-2-yl]phenyl]urea] | 15.1
2 | CNC(=O)Nc1ccc(-c2nc(N3CCOC[C@@H]3C)cc(C3(S(=O)(=O)C4CCOC4)CC3)n2)cc1 (stereo partly drawn) [Example 94g, 3-methyl-1-[4-[4-[(3S)-3-methylmorpholin-4-yl]-6-[1-(oxolan-3-ylsulfonyl)cyclopropyl]pyrimidin-2-yl]phenyl]urea] | 12.7
3 | CCNC(=O)Nc1ccc(-c2nc(N3CCOC[C@@H]3C)cc(C3(S(=O)(=O)C4CCOC4)CC3)n2)cc1 (stereo partly drawn) [Example 94h, 1-ethyl-3-[4-[4-[(3S)-3-methylmorpholin-4-yl]-6-[1-(oxolan-3-ylsulfonyl)cyclopropyl]pyrimidin-2-yl]phenyl]urea] | 11.6
4 | C[C@H]1COCCN1c1cc(C2(S(=O)(=O)C3CCOC3)CC2)nc(-c2ccc(NC(=O)NC3CC3)cc2)n1 (stereo partly drawn) [Example 94i, 3-cyclopropyl-1-[4-[4-[(3S)-3-methylmorpholin-4-yl]-6-[1-(oxolan-3-ylsulfonyl)cyclopropyl]pyrimidin-2-yl]phenyl]urea] | 12.1
5 | C[C@H]1COCCN1c1cc(C2(S(=O)(=O)C3CCOC3)CC2)nc(-c2ccc(NC(=O)NCCO)cc2)n1 (stereo partly drawn) [Example 94j, 3-(2-hydroxyethyl)-1-[4-[4-[(3S)-3-methylmorpholin-4-yl]-6-[1-(oxolan-3-ylsulfonyl)cyclopropyl]pyrimidin-2-yl]phenyl]urea] | 6.05
6 | C[C@H]1COCCN1c1cc(C2(S(=O)(=O)C3CCOC3)CC2)nc(-c2ccc(NC(=O)Nc3cnn(C)c3)cc2)n1 (stereo partly drawn) [Example 94k, 1-[4-[4-[(3S)-3-methylmorpholin-4-yl]-6-[1-(oxolan-3-ylsulfonyl)cyclopropyl]pyrimidin-2-yl]phenyl]-3-(1-methylpyrazol-4-yl)urea] | 10.6
7 | CNC(=O)Nc1ccc(-c2nc(N3CCOC[C@@H]3C)cc(C3(S(=O)(=O)c4ccc(F)c(Cl)c4)CC3)n2)cc1 [Example 95a, 1-[4-[4-[1-(3-chloro-4-fluorophenyl)sulfonyl-cyclopropyl]-6-[(3S)-3-methylmorpholin-4-yl]pyrimidin-2-yl]phenyl]-3-methylurea] | 13.9
8 | C[C@H]1COCCN1c1cc(C2(S(=O)(=O)c3ccc(F)c(Cl)c3)CC2)nc(-c2ccc(NC(=O)NC3CC3)cc2)n1 [Example 95b, 1-[4-[4-[1-(3-chloro-4-fluorophenyl)sulfonyl-cyclopropyl]-6-[(3S)-3-methylmorpholin-4-yl]pyrimidin-2-yl]phenyl]-3-cyclopropylurea] | 19
9 | C[C@H]1COCCN1c1cc(C2(S(=O)(=O)c3ccc(F)c(Cl)c3)CC2)nc(-c2ccc(NC(=O)NCCO)cc2)n1 [Example 95c, 1-[4-[4-[1-(3-chloro-4-fluorophenyl)sulfonyl-cyclopropyl]-6-[(3S)-3-methylmorpholin-4-yl]pyrimidin-2-yl]phenyl]-3-(2-hydroxyethyl)urea] | 7.06
10 | C[C@H]1COCCN1c1cc(C2(S(=O)(=O)c3ccc(F)c(Cl)c3)CC2)nc(-c2ccc(NC(=O)NCCF)cc2)n1 [Example 95d, 1-[4-[4-[1-(3-chloro-4-fluorophenyl)sulfonyl-cyclopropyl]-6-[(3S)-3-methylmorpholin-4-yl]pyrimidin-2-yl]phenyl]-3-(2-fluoroethyl)urea] | 12.6
11 | C[C@H]1COCCN1c1cc(C2(S(=O)(=O)c3ccc(F)c(Cl)c3)CC2)nc(-c2ccc(NC(=O)NCC(F)F)cc2)n1 [Example 95e, 1-[4-[4-[1-(3-chloro-4-fluorophenyl)sulfonyl-cyclopropyl]-6-[(3S)-3-methylmorpholin-4-yl]pyrimi-din-2-yl]phenyl]-3-(2,2-difluoroethyl)urea] | 16
12 | CCNC(=O)Nc1ccc(-c2nc(N3CCOC[C@@H]3C)cc(C3(S(=O)(=O)c4ccc(F)c(Cl)c4)CC3)n2)cc1 [Example 95f, 3-[4-[4-[1-(3-chloro-4-fluorophenyl)sulfonyl-cyclopropyl]-6-[(3S)-3-methylmorpholin-4-yl]pyrimidin-2-yl]phenyl]-1-ethylurea] | 10.9
13 | C[C@H]1COCCN1c1cc(C2(S(=O)(=O)c3ccc(F)c(Cl)c3)CC2)nc(-c2ccc(NC(=O)Nc3cnn(C)c3)cc2)n1 [Example 95g, 1-[4-[4-[1-(3-chloro-4-fluorophenyl)sulfonyl-cyclopropyl]-6-[(3S)-3-methylmorpholin-4-yl]pyrimidin-2-yl]phenyl]-3-(1-methylpyrazol-4-yl)urea] | 16.4

Next, values leading:

Row | IC50 [nM] | Compound
14 | 13 | CNC(=O)Nc1ccc(-c2nc(N3CCOC[C@@H]3C)cc(C3(S(=O)(=O)c4ccc(NC)c(Cl)c4)CC3)n2)cc1 [Example 95h, 1-[4-[4-[1-(3-chloro-4-methylamino-phenyl)sulfonylcyclo-propyl]-6-[(3S)-3-methylmorpho-lin-4-yl]pyrimidin-2-yl]phenyl]-3-methylurea]
15 | 4.79 | C[C@H]1COCCN1c1cc(C2(S(=O)(=O)c3ccc(NCCO)c(Cl)c3)CC2)nc(-c2ccc(NC(=O)NCCO)cc2)n1 [Example 95i, 1-[4-[4-[1-[3-chloro-4-(2-hydroxyethylamino)phenyl]sulfonylcyclopropyl]-6-[(3S)-3-methylmorpho-lin-4-yl]pyrimidin-2-yl]phenyl]-3-(2-hydroxyethyl)urea]
16 | 13.1 | C[C@H]1COCCN1c1cc(C2(S(=O)(=O)c3ccc(NCCF)c(Cl)c3)CC2)nc(-c2ccc(NC(=O)NCCF)cc2)n1 [Example 95j, 1-[4-[4-[1-[3-chloro-4-(2-fluoroethyl-amino)phenyl]sulfonyl-cyclopropyl]-6-[(3S)-3-methylmorpho-lin-4-yl]pyrimidin-2-yl]phenyl]-3-(2-fluoroethyl)urea]
17 | 27.2 | CCNC(=O)Nc1ccc(-c2nc(N3CCOC[C@@H]3C)cc(C3(S(=O)(=O)c4ccc(NCC)c(Cl)c4)CC3)n2)cc1 [Example 95k, 1-[4-[4-[1-(3-chloro-4-ethylamino-phenyl)sulfonylcyclopro-pyl]-6-[(3S)-3-methylmorpho-lin-4-yl]pyrimidin-2-yl]phenyl]-3-ethylurea]
18 | 1.09 | CNC(=O)Nc1ccc(-c2nc(N3CCOC[C@@H]3C)cc(C3(S(=O)(=O)c4ccc(C)cc4)CC3)n2)cc1 [Example 95l, 3-methyl-1-[4-[4-[(3S)-3-methylmorpholin-4-yl]-6-[1-(4-methylphenyl)sulfonylcyclopropyl]pyrimidin-2-yl]phenyl]urea]
19 | 2.02 | Cc1ccc(S(=O)(=O)C2(c3cc(N4CCOC[C@@H]4C)nc(-c4ccc(NC(=O)NC5CC5)cc4)n3)CC2)cc1 [Example 95m, 3-cyclopropyl-1-[4-[4-[(3S)-3-methylmorpholin-4-yl]-6-[1-(4-methylphenyl)sulfonylcyclopropyl]pyrimidin-2-yl]phenyl]urea]
20 | 0.668 | Cc1ccc(S(=O)(=O)C2(c3cc(N4CCOC[C@@H]4C)nc(-c4ccc(NC(=O)NCCO)cc4)n3)CC2)cc1 [Example 95n, 3-(2-hydroxyethyl)-1-[4-[4-[(3S)-3-methylmorpholin-4-yl]-6-[1-(4-methylphenyl)sulfonylcyclopropyl]pyrimidin-2-yl]phenyl]urea]
21 | 4.73 | Cc1ccc(S(=O)(=O)C2(c3cc(N4CCOC[C@@H]4C)nc(-c4ccc(NC(=O)NCCF)cc4)n3)CC2)cc1 [Example 95o, 3-(2-fluoro-ethyl)-1-[4-[4-[(3S)-3-methylmorpholin-4-yl]-6-[1-(4-methylphenyl)sulfonylcyclopropyl]pyrimidin-2-yl]phenyl]urea]
22 | 5.43 | Cc1ccc(S(=O)(=O)C2(c3cc(N4CCOC[C@@H]4C)nc(-c4ccc(NC(=O)NCC(F)F)cc4)n3)CC2)cc1 [Example 95p, 3-(2,2-difluoroethyl)-1-[4-[4-[(3S)-3-methylmorpholin-4-yl]-6-[1-(4-methylphenyl)sulfonylcyclopropyl]pyrimidin-2-yl]phenyl]urea]
23 | 1.68 | CCNC(=O)Nc1ccc(-c2nc(N3CCOC[C@@H]3C)cc(C3(S(=O)(=O)c4ccc(C)cc4)CC3)n2)cc1 [Example 95q, 1-ethyl-3-[4-[4-[(3S)-3-methylmorpholin-4-yl]-6-[1-(4-methylphenyl)sulfonylcyclopropyl]pyrimidin-2-yl]phenyl]urea]
24 | 6.31 | Cc1ccc(S(=O)(=O)C2(c3cc(N4CCOC[C@@H]4C)nc(-c4ccc(NC(=O)Nc5cnn(C)c5)cc4)n3)CC2)cc1 [Example 95r, 1-[4-[4-[(3S)-3-methylmorpholin-4-yl]-6-[1-(4-methylphenyl)sulfonylcyclopropyl]pyrimidin-2-yl]phenyl]-3-(1-methylpyrazol-4-yl)urea]
25 | 17.7 | C[C@H]1COCCN1c1cc(C2(S(=O)(=O)CCCOC(F)F)CC2)nc(-c2ccc(NC(=O)NCCF)cc2)n1 [Example 96a, 1-[4-[4-[1-[3-(difluoromethoxy)propylsulfonyl]cyclopropyl]-6-[(3S)-3-methylmorpholin-4-yl]pyrimidin-2-yl]phenyl]-3-(2-fluoroethyl)urea]
26 | 26.8 | C[C@H]1COCCN1c1cc(C2(S(=O)(=O)CCCOC(F)F)CC2)nc(-c2ccc(NC(=O)NCC(F)F)cc2)n1 [Example 96b, 3-(2,2-difluoroethyl)-1-[4-[4-[1-[3-(difluoromethoxy)propylsulfonyl]cycloproyl]-6-[(3S)-3-methylmorpholin-4-yl]pyrimidin-2-yl]phenyl]urea]
27 | 27.2 | CCNC(=O)Nc1ccc(-c2nc(N3CCOC[C@@H]3C)cc(C3(S(=O)(=O)CCCOC(F)F)CC3)n2)cc1 [Example 96c, 1-[4-[4-[1-[3-(difluoromethoxy)propylsulfonyl]cyclopropyl]-6-[(3S)-3-methylmorpholin-4-yl]pyrimidin-2-yl]phenyl]-3-ethylurea]
28 | 20.9 | C[C@H]1COCCN1c1cc(C2(S(=O)(=O)CCCOC(F)F)CC2)nc(-c2ccc(NC(=O)Nc3cnn(C)c3)cc2)n1 [Example 96d, 1-[4-[4-[1-[3-(difluoromethoxy)propylsulfonyl]cyclopropyl]-6-[(3S)-3-methylmorpholin-4-yl]pyrimidin-2-yl]phenyl]-3-(1-methylpyrazol-4-yl)urea]
